The values below come from ChEMBL document CHEMBL1811878, “Heteroatom-substituted analogues of orphan nuclear receptor small heterodimer partner ligand and apoptosis inducer (E)-4-[3-(1-Adamantyl)-4-hydroxyphenyl]-3-chlorocinnamic acid” (J Med Chem, 2011).

Molecules are shown by their SMILES. pIC50: −log10 of the molar value. Values after ≈ are worked out from the molar mass of the structure shown. Active and inactive are the calls of the source. The rule behind the calls is not given here.

In series [1] the test system is HeLa. The experiment in a line: Induction of apoptosis in human HeLa cells assessed as ATP level at 0.5 uM after 48 hrs by luminometric analysis. The class given is functional.
Series [2] concerns SK-BR-3. The experiment in a line: Induction of apoptosis in human SKBR3 cells assessed as DNA fragmentation at 1 uM after 72 hrs by acridine orange staining. The series is classed as functional.
Series [3] relates to HeLa. The experiment in a line: Induction of apoptosis in human HeLa cells assessed as ATP level at 1 uM after 72 hrs by acridine orange staining. The class given is functional.
The nature of series [4]: Induction of apoptosis in mouse MMTV-Wnt-1 cells assessed as cell viability after 72 hrs by DAPI staining based cell counting. The series is classed as functional.
For series [5], the system named is HT-29. In words: Induction of apoptosis in human HT-29 cells assessed as decrease in ATP level at 10 uM after 72 hrs by luminescence assay. The class given is functional. Also on record: scale not given: the % may be the effect or the level left.
The subject of series [6] is A549. The experiment in a line: Induction of apoptosis in human A549 cells assessed as decrease in ATP level at 10 uM after 72 hrs by luminescence assay. The class given is functional, cell-based.
In series [7] the test system is PC-3. In words: Induction of apoptosis in human PC3 cells assessed as decrease in ATP level at 10 uM after 72 hrs by luminescence assay. The series is classed as functional, cell-based.
Series [8] relates to A549. In words: Induction of apoptosis in human A549 cells assessed as decrease in ATP level after 72 hrs by luminescence assay. The class given is functional, cell-based.
In series [9] the test system is PC-3. In words: Induction of apoptosis in human PC3 cells assessed as decrease in ATP level after 72 hrs by luminescence assay. The series is classed as functional, cell-based.
Series [10] deals with HT-29. The experiment in a line: Induction of apoptosis in human HT-29 cells assessed as decrease in ATP level at 10 uM after 72 hrs by luminescence assay relative to control. The class given is functional. Also on record: scale not given: the % may be the effect or the level left.
The test system of series [11] is HT-29. The experiment in a line: Induction of apoptosis in human HT-29 cells assessed as decrease in ATP level after 72 hrs by luminescence assay. The class given is functional, cell-based.
The subject of series [12] is A549. The experiment in a line: Induction of apoptosis in human A549 cells assessed as decrease in ATP level at 5 uM after 72 hrs by luminescence assay. The class given is functional. Also on record: scale not given: the % may be the effect or the level left.
The subject of series [13] is PC-3. The experiment in a line: Induction of apoptosis in human PC3 cells assessed as decrease in ATP level at 5 uM after 72 hrs by luminescence assay. The series is classed as functional. Details: scale not given: the % may be the effect or the level left.
The test system of series [14] is HT-29. In words: Induction of apoptosis in human HT-29 cells assessed as decrease in ATP level at 5 uM after 72 hrs by luminescence assay. Details: scale not given: the % may be the effect or the level left. The series is classed as functional.
The subject of series [15] is KG-1. In words: Growth inhibition in human KG1 cells expressing p53 gene at 1 uM after 48 hrs by MTT assay. The series is classed as functional. The following applies: KG-1, 48 h, read-out: GI. A general note: Tetrazolium assays rely on reduction of a dye to a coloured formazan, in cell work by metabolically active cells.
The subject of series [16] is KG-1. In words: Growth inhibition in human KG1 cells expressing p53 gene at 5 uM after 48 hrs by MTT assay. The class given is functional. The conditions noted are these: KG-1, 48 h, read-out: GI.
Series [17] concerns KG-1. The experiment in a line: Induction of apoptosis in human KG1 cells expressing p53 gene assessed as DNA fragmentation at 1 uM after 48 hrs by acridine orange staining method. The series is classed as functional.
For series [18], the system named is KG-1. The experiment in a line: Induction of apoptosis in human KG1 cells assessed as DNA fragmentation at 5 uM after 48 hrs by acridine orange staining method. The series is classed as functional.
Series [19] in a line: Aqueous solubility of the compound in PBS at pH 7.2 by UV spectrophotometric analysis. The conditions noted are these: PBS, read-out: solubility. The series is classed as physicochemical.
A short description of series [20]: Aqueous solubility of the compound in water at pH 5 by UV spectrophotometric analysis. The series is classed as physicochemical.
The subject of series [21] is KG-1. In words: Induction of apoptosis in human KG1 cells expressing p53 gene assessed as DNA fragmentation at 0.1 to 1 uM after 48 hrs by acridine orange staining method. The class given is functional, cell-based.
The subject of series [22] is KG-1. The experiment in a line: Growth inhibition in human KG1 cells expressing p53 gene at 0.1 to 1 uM after 48 hrs by MTT assay. The class given is functional, cell-based.
For series [23], the system named is MDA-MB-231. The experiment in a line: Growth inhibition of retinoid-resistant human MDA-MB-231 cells expressing p53 and ERbeta gene at 0.1 to 1 uM by MTT assay. The series is classed as functional, cell-based. The conditions noted are these: TDE = time-dependent effect.
Series [24] concerns MDA-MB-231. The experiment in a line: Growth inhibition of retinoid-resistant human MDA-MB-231 cells expressing p53 and ERbeta gene after 48 hrs by MTT assay. The class given is functional, cell-based.
Series [25] concerns MDA-MB-231. The experiment in a line: Induction of apoptosis in retinoid-resistant human MDA-MB-231 cells expressing p53 and ERbeta gene assessed as DNA fragmentation at 0.1 to 1 uM by acridine orange staining method. The class given is functional, cell-based. The following applies: TDE = time-dependent effect.
Series [26] relates to MDA-MB-231. The experiment in a line: Induction of apoptosis in retinoid-resistant human MDA-MB-231 cells expressing p53 and ERbeta gene assessed as DNA fragmentation after 48 hrs by acridine orange staining method. The series is classed as functional, cell-based.
The test system of series [27] is MDA-MB-231. In words: Growth inhibition of retinoid-resistant human MDA-MB-231 cells expressing p53 and ERbeta gene at 1 uM after 24 hrs by MTT assay. The series is classed as functional. The conditions noted are these: MDA-MB-231, 24 h, read-out: GI.
Series [28] deals with MDA-MB-231. In words: Growth inhibition of retinoid-resistant human MDA-MB-231 cells expressing p53 and ERbeta gene at 1 uM after 48 hrs by MTT assay. The series is classed as functional. The conditions noted are these: MDA-MB-231, 48 h, read-out: GI.
The test system of series [29] is MDA-MB-231. In words: Induction of apoptosis in retinoid-resistant human MDA-MB-231 cells expressing p53 and ERbeta gene assessed as DNA fragmentation at 1 uM after 24 hrs by acridine orange staining method. The series is classed as functional.
Series [30] deals with MDA-MB-231. In words: Induction of apoptosis in retinoid-resistant human MDA-MB-231 cells expressing p53 and ERbeta gene assessed as DNA fragmentation at 1 uM after 48 hrs by acridine orange staining method. The series is classed as functional.
The test system of series [31] is SK-BR-3. In words: Induction of apoptosis in estrogen receptor-deficient human SKBR3 cells assessed as DNA fragmentation at 0.5 uM by acridine orange staining. The series is classed as functional, cell-based. The following applies: TDE = time-dependent effect.
Series [32] deals with HeLa. In words: Induction of apoptosis in human HeLa cells assessed as ATP level at 0.5 uM by luminometric analysis. The class given is functional, cell-based. The conditions noted are these: TDE = time-dependent effect.
For series [33], the system named is SK-BR-3. The experiment in a line: Induction of apoptosis in estrogen receptor-deficient human SKBR3 cells assessed as DNA fragmentation at 0.5 uM after 48 hrs by acridine orange staining. The class given is functional.
Series [34] concerns HT-29. The experiment in a line: Growth inhibition of ERalpha-negative and ERbeta-positive human HT-29 cells at 10 uM after 72 hrs in presence of 10% FCS. The following applies: HT-29, 72 h, read-out: GI. The class given is functional.
In series [35] the test system is A549. The experiment in a line: Growth inhibition of ERalpha-negative and ERbeta-positive human A549 cells at 10 uM after 72 hrs. The series is classed as functional. The following applies: A549, 72 h, read-out: GI.
In series [36] the test system is HeLa. The experiment in a line: Growth inhibition of human HeLa cells at 1 uM after 96 hrs by MTT assay in presence of 5% serum. The series is classed as functional. The following applies: read-out: GI.
The test system of series [37] is HeLa. In words: Induction of apoptosis in human HeLa cells plated on serum free media for 24 hrs assessed as caspase 3 cleavage at 10 uM after 12 hrs. The series is classed as functional.
In series [38] the test system is SK-BR-3. The experiment in a line: Growth inhibition of estrogen receptor-deficient human SKBR3 cells at 1 uM after 144 hrs by MTT assay relative to control in presence of 5% serum. The series is classed as functional. The conditions noted are these: SK-BR-3, 144 h, read-out: GI.
For series [39], the system named is SK-BR-3. In words: Growth inhibition of estrogen receptor-deficient human SKBR3 cells at 1 uM after 216 hrs by MTT assay relative to control in presence of 5% serum. The class given is functional. The following applies: SK-BR-3, 216 h, read-out: GI.

For `O=C(O)/C=C/c1ccc(-c2ccc(O)c(C34CC5CC(CC(C5)C3)C4)c2)nc1`, the Activity is over 60% in series [1]; 15% in [2]; 2.6% in series [3]; “>=40%” in series [5]; “Dose-dependent effect” in series [8]; “Dose-dependent effect” in [9]. Further, the Activity in series [10] is under 60%; in series [11], “Dose-dependent effect”; in series [12] it was 30%; in series [13], 30%; in series [14], 30%; in series [17], 68%. For the same compound, the Activity in series [18] is 84%; in [25], “tde”; in series [26] it was “Dose-dependent effect”; in series [29] it was 38%; in series [30], 82%; in series [31] it was “tde”. The results for the Activity result in series [32] and in series [33] were “tde” and 1.9%, respectively. Besides, the pIC50 in series [4] is 7.72. The result in series [6], in series [7] and in series [21] was Active. Further, the inhibition of growth at 1 µM was determined as 85% in series [15], 86% in [27] and 85% in [28]. Also, the inhibition of growth at 5 µM in series [16] is 90%. In addition, the solubility in [19] was 14 µM (≈ 5.26 µg/mL); in series [20], 7 µM (≈ 2.63 µg/mL). For the same compound, in series [22], the “growth inhibition (GI)” value was “Active”. Moreover, the “growth inhibition (GI)” value in [23] was “tde”; in series [24], “Dose-dependent effect”.
With `CC1=C(/C=C/C(C)=C/C=C/C(C)=C/C(=O)O)C(C)(C)CCC1` [TRETINOIN], the inhibition of growth at 10 µM is 8% in series [34] and 5% in series [35]. For the same compound, the inhibition of growth at 1 µM stood at 71% in series [36], 36% in [38] and 24% in series [39]. In addition, the Activity in [37] came out at 87%.

For orientation: pIC50 means the negative decadic logarithm of the IC50, by convention in mol/L. What is called solubility is the concentration that dissolves in the medium under given conditions.
